Data taken from ChEMBL document CHEMBL4483862, “Open-source discovery of chemical leads for next-generation chemoprotective antimalarials” (2018).

Tested on: Plasmodium berghei
Experiment: Luciferase/luciferin-expressing antifolate-resistant parasites were used to infect a culture of HepG2 cells that were pre-incubated with compounds. Infected hepatocytes emit light due to the luciferase reaction. Assay results are presented as the percent inhibition of light emission compared to control. […]
Type: functional
Conditions: sporozoite; for IC90: read-out: LUCIFERASE INFECTION ASSAY - IC90
[1] = read-out: LUCIFERASE INFECTION ASSAY - IC50

SMILES | IC90 | also measured
O=C(CSCc1cn(-c2ccccc2)nc1-c1ccccc1)NC1CCCC1 | > 10 µM | IC50 (PBLUC_HILL_SLOPE 4.68, PBLUC_R_SQUARED 0.205, read-out: LUCIFERASE INFECTION ASSAY - IC50): 6.9 µM
CC(C)c1ccc(-n2c(SCc3ccc(Cl)cc3)nnc2-c2ccc(C(C)(C)C)cc2)cc1 | > 6.93 µM | IC50 [1]: > 6.93 µM
Cc1ccc(Sc2nc(-c3cccs3)ns2)cc1 | > 11.4 µM | IC50 (PBLUC_HILL_SLOPE 0.427, PBLUC_R_SQUARED 0.742, read-out: LUCIFERASE INFECTION ASSAY - IC50): 0.259 µM
Cc1ccc(/N=C/c2c(-c3ccccc3Cl)[nH]c3ccccc23)cc1C | 4.13 µM | IC50 (HEPG2TOX_HILL_SLOPE 1.53, HEPG2TOX_R_SQUARED 0.955, PBLUC_HILL_SLOPE 2.45, PBLUC_R_SQUARED 0.607, read-out: LUCIFERASE INFECTION ASSAY - IC50): 1.68 µM
CC(=O)NCCCc1ccc(C(=O)COC(=O)c2cc(Cl)c[nH]2)cc1 | > 10 µM | IC50 (FFLUC_HILL_SLOPE 2.83, FFLUC_R_SQUARED 0.674, read-out: LUCIFERASE INFECTION ASSAY - IC50): > 10 µM
CSc1c(C#N)c(-c2cc(C(C)(C)C)oc2C)nn1-c1ccc(I)cc1 | > 6.91 µM | IC50 (FFLUC_HILL_SLOPE 0.81, FFLUC_R_SQUARED 0.431, read-out: LUCIFERASE INFECTION ASSAY - IC50): > 6.91 µM
Cc1ccc(S(=O)(=O)N2CCC[C@H]2C(=O)Nc2ccc(-c3nc4ccccc4[nH]3)cc2)cc1 | > 10 µM | IC50 (HEPG2TOX_HILL_SLOPE 1.59, HEPG2TOX_R_SQUARED 0.747, PBLUC_HILL_SLOPE 12.8, PBLUC_R_SQUARED 0.235, read-out: LUCIFERASE INFECTION ASSAY - IC50): 8.44 µM
CCC(C)(C)c1ccc(Oc2ccc(NC(=O)COC(=O)c3cc(-c4cc(OC)c(OC)c(OC)c4)nc4ccccc34)cc2)cc1 | > 10 µM | IC50 (PBLUC_HILL_SLOPE 0.863, PBLUC_R_SQUARED 0.508, read-out: LUCIFERASE INFECTION ASSAY - IC50): 2.17 µM
Cc1csc2nc(COC(=O)c3ccc(-c4nc5ccccc5s4)o3)cc(=O)n12 | > 10 µM | IC50 [1]: > 10 µM
O=S(=O)(c1ccc(Cl)c(NC(=S)N/N=C/c2ccc3ncccc3c2)c1)N1CCOCC1 | > 10 µM | IC50 (PBLUC_HILL_SLOPE 2.75, PBLUC_R_SQUARED 0.637, read-out: LUCIFERASE INFECTION ASSAY - IC50): 5.55 µM
O=C(CN1CCN(CCOc2ccccc2)CC1)Nc1cc(C(F)(F)F)ccc1Cl | > 10 µM | IC50 (PBLUC_HILL_SLOPE 3.77, PBLUC_R_SQUARED 0.518, read-out: LUCIFERASE INFECTION ASSAY - IC50): 7.08 µM
Cc1c(S(=O)(=O)c2ccc(Cl)cc2)csc1C(=O)Nc1cc(C(F)(F)F)cc(C(F)(F)F)c1 | > 6.25 µM | IC50 (FFLUC_HILL_SLOPE 11.9, FFLUC_R_SQUARED 0.653, HEPG2TOX_HILL_SLOPE 12.6, HEPG2TOX_R_SQUARED 0.751, PBLUC_HILL_SLOPE 2.69, PBLUC_R_SQUARED 0.583, read-out: LUCIFERASE INFECTION ASSAY - IC50): 3.24 µM
COc1ccc(Nc2nccn3c(-c4cccc(C(=O)NCCO)c4)cnc23)cc1 | 4.59 µM | IC50 (FFLUC_HILL_SLOPE 1.47, FFLUC_R_SQUARED 0.89, PBLUC_HILL_SLOPE 0.68, PBLUC_R_SQUARED 0.895, read-out: LUCIFERASE INFECTION ASSAY - IC50): 0.181 µM
CCOc1ccc(CN(CC)C(=O)c2ccc(=O)[nH]c2)cc1OC | > 10 µM | IC50 [1]: > 10 µM
CNC(=O)c1cccc(NC(=O)c2ccc3[nH]c4c(c3c2)CCCC4)c1 | > 10 µM | IC50 (HEPG2TOX_HILL_SLOPE 15.2, HEPG2TOX_R_SQUARED 0.62, read-out: LUCIFERASE INFECTION ASSAY - IC50): > 10 µM
COc1ccc(-c2cnc3cnc(-c4cccs4)cn23)cn1 | 4.6 µM | IC50 (PBLUC_HILL_SLOPE 13.2, PBLUC_R_SQUARED 0.556, read-out: LUCIFERASE INFECTION ASSAY - IC50): 3.89 µM
CCCn1c(-c2ccccc2)nc2c(c(=O)c3ccccc3n2C)c1=O | 3.93 µM | IC50 [1]: 3.2 µM
Cc1ccccc1S(=O)(=O)Nc1nccnc1N1CCN(S(=O)(=O)c2cccc3ccccc23)CC1 | > 6.3 µM | IC50 [1]: > 6.3 µM
COc1cc(/C=C2/C(=O)N(C)c3ccccc32)cc(OC)c1 | > 10 µM | IC50 [1]: > 10 µM
COc1cc(C(=O)c2c(N)c(C#N)cn3c2nc2ccccc23)cc(OC)c1OC | 1.04 µM | IC50 (HEPG2TOX_HILL_SLOPE 1.34, 0.970, HEPG2TOX_R_SQUARED 0.842, 0.883, PBLUC_HILL_SLOPE 1.49, PBLUC_R_SQUARED 0.764, read-out: LUCIFERASE INFECTION ASSAY - IC50): 0.237 µM

SMILES | IC90 | also measured
CNc1nc(SCCS(=O)(=O)c2ccccc2)nc2ccccc12 | 6.83 µM | IC50 (PBLUC_HILL_SLOPE 1.42, PBLUC_R_SQUARED 0.718, read-out: LUCIFERASE INFECTION ASSAY - IC50): 1.45 µM
CCCCCCNC(=S)c1c(-c2ccc(F)cc2)c2c3n(c(COc4cc(C)ccc4C(C)C)nn13)CCCC2 | 8.92 µM | IC50 (HEPG2TOX_HILL_SLOPE 19.8, 4.67, HEPG2TOX_R_SQUARED 0.943, 0.975, PBLUC_HILL_SLOPE 3.99, PBLUC_R_SQUARED 0.689, read-out: LUCIFERASE INFECTION ASSAY - IC50): 5.14 µM
CCCCc1ccc(CC(=O)NCc2ccc(Cn3cccn3)cc2)cc1 | 8.98 µM | IC50 (HEPG2TOX_HILL_SLOPE 7.71, 2.15, HEPG2TOX_R_SQUARED 0.735, 0.901, PBLUC_HILL_SLOPE 15.3, 3.44, PBLUC_R_SQUARED 0.0878, 0.809, read-out: LUCIFERASE INFECTION ASSAY - IC50): 7.36 µM
O=c1nc(Nc2ccc(Cl)cc2)[nH]nc1Cc1ccc(Cl)cc1 | 5.05 µM | IC50 (PBLUC_HILL_SLOPE 2.36, PBLUC_R_SQUARED 0.336, read-out: LUCIFERASE INFECTION ASSAY - IC50): 1.99 µM
O=C(c1ccc(=O)[nH]c1)N1CCN(Cc2nc(=O)c3ccccc3[nH]2)CC1 | > 10 µM | IC50 [1]: > 10 µM
Cc1ccc2nc(NC(=O)c3cc(F)ccc3F)c(C(=O)NC3CCCC3)n2c1 | 3 µM | IC50 (HEPG2TOX_HILL_SLOPE 2.24, HEPG2TOX_R_SQUARED 0.919, PBLUC_HILL_SLOPE 5.13, PBLUC_R_SQUARED 0.447, read-out: LUCIFERASE INFECTION ASSAY - IC50): 1.96 µM
CCN(c1ccc(NC(=O)c2ccc3c(c2)NC(=O)CS3)cc1)C(C)C | 3.68 µM | IC50 (HEPG2TOX_HILL_SLOPE 14.6, HEPG2TOX_R_SQUARED 0.71, PBLUC_HILL_SLOPE 18.6, PBLUC_R_SQUARED 0.967, read-out: LUCIFERASE INFECTION ASSAY - IC50): 3.27 µM
CC(=O)c1c(C)[nH]c(C(=O)CN(C)Cc2ccc(C(C)(C)C)cc2)c1C | > 10 µM | IC50 [1]: > 10 µM
CC(C)(C)c1cc(NC(=O)Cn2cnc3scc(-c4ccccc4)c3c2=O)on1 | > 10 µM | IC50 (HEPG2TOX_HILL_SLOPE 6.06, HEPG2TOX_R_SQUARED 0.374, PBLUC_HILL_SLOPE 1.95, PBLUC_R_SQUARED 0.0898, read-out: LUCIFERASE INFECTION ASSAY - IC50): > 10 µM
O=C(c1ccc(N2CCCC2=O)cc1)N1CCN(C2CCS(=O)(=O)C2)CC1 (stereo not given) | > 10 µM | IC50 [1]: > 10 µM
c1ccc(-c2nc(-c3ccccc3)c(-c3ccccc3)o2)cc1 | > 11.1 µM | IC50 (FFLUC_HILL_SLOPE 6.72, FFLUC_R_SQUARED 0.191, read-out: LUCIFERASE INFECTION ASSAY - IC50): > 11.1 µM
Cn1ncc2c(ON=C(N)c3ccc(C(C)(C)C)cc3)ncnc21 | 9.41 µM | IC50 (HEPG2TOX_HILL_SLOPE 12.1, HEPG2TOX_R_SQUARED 0.899, PBLUC_HILL_SLOPE 18.6, PBLUC_R_SQUARED 0.286, read-out: LUCIFERASE INFECTION ASSAY - IC50): 8.36 µM
CCOC(=O)c1c(C)[nH]c(C(=O)CSc2nccn2C)c1C | 0.204 µM | IC50 (FFLUC_HILL_SLOPE 13.6, FFLUC_R_SQUARED 0.648, PBLUC_HILL_SLOPE 159, PBLUC_R_SQUARED 0.464, read-out: LUCIFERASE INFECTION ASSAY - IC50): 0.201 µM
N#C/C(=N\Nc1cc(C(F)(F)F)ccc1OCC(F)(F)F)S(=O)(=O)c1ccccc1 | 0.397 µM | IC50 (HEPG2TOX_HILL_SLOPE 2.04, HEPG2TOX_R_SQUARED 0.948, PBLUC_HILL_SLOPE 1.99, PBLUC_R_SQUARED 0.732, read-out: LUCIFERASE INFECTION ASSAY - IC50): 0.131 µM
CN1CCCN(C(=O)C2CCN(c3oc(-c4ccco4)nc3C#N)CC2)c2nc3ccccc3nc21 | 4.67 µM | IC50 (PBLUC_HILL_SLOPE 11.5, PBLUC_R_SQUARED 0.327, read-out: LUCIFERASE INFECTION ASSAY - IC50): 3.86 µM
N#Cc1c(SCc2ccc(F)cc2)nc(N2CCOCC2)c2c1CCCC2 | > 8.61 µM | IC50 [1]: > 8.61 µM
Cc1cccc(C)c1OCCOC(=O)c1[nH]nc2ccccc12 | > 10 µM | IC50 [1]: > 10 µM
CC(C)c1ccc(Nc2nccc3nc(-c4cccc(F)c4)[nH]c23)cc1 | > 10 µM | IC50 (HEPG2TOX_HILL_SLOPE 1.91, HEPG2TOX_R_SQUARED 0.651, PBLUC_HILL_SLOPE 0.872, PBLUC_R_SQUARED 0.722, read-out: LUCIFERASE INFECTION ASSAY - IC50): 1.39 µM
CC(C)N1CCN(c2ccc(-c3cn4c(-c5ccc(O)cc5)cnc4cn3)cc2)CC1 | > 7.98 µM | IC50 (PBLUC_HILL_SLOPE 1.81, PBLUC_R_SQUARED 0.0513, read-out: LUCIFERASE INFECTION ASSAY - IC50): > 7.98 µM
CCOC(=O)c1c(S(=O)(=O)N2CCN(c3ncccc3C(F)(F)F)CC2)c(-c2ccccc2)n(-c2ccccc2)c1C | > 5.51 µM | IC50 (FFLUC_HILL_SLOPE 0.343, FFLUC_R_SQUARED 0.352, PBLUC_HILL_SLOPE 1.97, PBLUC_R_SQUARED 0.72, read-out: LUCIFERASE INFECTION ASSAY - IC50): > 5.51 µM
